For four compounds, EC50 and Emax results are on record in US20230265151A1, “GIP/GLP1 CO-AGONIST COMPOUNDS” (priority 2020, published 2023).

Holding throughout (format): cell-based
Assay [1] deals with T1, hGCGR (Homo sapiens, UniProt P47871).
T1 construct: expressed in transfected cells
Briefly: Functional cAMP formation (HTRF) in HEK-293 clonal cells expressing hGCGR, 0.1% bovine casein, without or with 1.0% human serum albumin. As to conditions: geometric mean, read-out: hGCGR EC50, nM (SEM, n). A digest of the protocol:
(§1)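 Readings of the HTRF 665/620 nm ratio, which falls as cAMP rises, were converted to nM cAMP using a standard curve after 30 min peptide exposure at 37° C.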
(cAMP levels reflect the balance of adenylyl cyclase and phosphodiesterase activity.)

Assay [2] has as its target hGLP-1R (Homo sapiens, UniProt P43220). Description: Functional cAMP formation (HTRF) in HEK-293 clonal cells expressing hGLP-1R, 0.1% bovine casein, without or with 1.0% human serum albumin. Also on record: expressed in transfected cells. As to conditions: for EC50: geometric mean, read-out: hGLP-1R EC50, nM (SEM, n); for Emax: read-out: hGLP-1R Emax, % ± SEM. A digest of the protocol:
as §1

Assay [3] concerns the target T2, hGIPR (Homo sapiens, UniProt P48546).
T2 construct: expressed in transfected cells
T2 sequence (P48546 22-466): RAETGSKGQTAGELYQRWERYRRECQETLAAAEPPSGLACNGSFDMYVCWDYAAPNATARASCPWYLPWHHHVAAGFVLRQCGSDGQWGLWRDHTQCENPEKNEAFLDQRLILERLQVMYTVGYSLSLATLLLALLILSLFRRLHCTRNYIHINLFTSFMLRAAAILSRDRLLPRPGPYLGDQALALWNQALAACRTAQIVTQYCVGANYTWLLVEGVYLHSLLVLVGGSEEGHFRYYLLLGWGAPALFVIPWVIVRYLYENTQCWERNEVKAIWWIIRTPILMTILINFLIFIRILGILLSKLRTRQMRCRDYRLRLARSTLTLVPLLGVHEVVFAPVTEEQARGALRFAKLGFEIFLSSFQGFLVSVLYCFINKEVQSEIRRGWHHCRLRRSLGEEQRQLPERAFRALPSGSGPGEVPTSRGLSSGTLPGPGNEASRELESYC
Description: Functional cAMP formation (HTRF) in HEK-293 clonal cells expressing hGIPR, 0.1% bovine casein, without or with 1.0% human serum albumin. The conditions noted are these: for Emax: read-out: hGIPR Emax, % ± SEM; for EC50: geometric mean, read-out: hGIPR EC50, nM (SEM, n). The gist of the method:
as §1

The mark [4] stands for this setting: 0.1% bovine casein and 1.0% human serum albumin, 37° C.
Where [5] appears, read: cAMP, incubated at 37° C., 0.1% bovine casein (no human serum albumin).
[6] abbreviates: HEK293, 0.1% bovine casein and 1.0% human serum albumin, 37° C., percent of maximal response to GIP(1-42)NH2.
The mark [7] stands for this setting: HEK293, percent of maximal response to GIP(1-42)NH2, 37° C., 0.1% bovine casein, arithmetic mean.
Where [8] appears, read: HEK293, 0.1% bovine casein and 1.0% human serum albumin, 37° C., percent of maximal response to GLP-1(7-36)NH2.
Where [9] appears, read: HEK293, percent of maximal response to GLP-1(7-36)NH2, 37° C., 0.1% bovine casein, arithmetic mean.

What is called EC50 is the concentration giving half of the maximal effect. As a reminder, the Emax is the greatest response seen or fitted, relative to the assay's reference.

The structures appear in SMILES notation. Where two headings read alike, the source gives them in different places. *1 amine or outer side, *2 acyl side, *3 side chain or, on linkers, in order; H or OH if unused. Where a SMILES comes first, the peptide text is derived from it. Side-chain parts run from the residue outwards. [ ]: non-standard residue; d: D form. The star is where a group is joined. αMePhe(2-F) = C[C@](N)(Cc1ccccc1F)C(=O)O; γGlu = O=C(O)[C@H](CCC(=O)[*:2])N[*:1]; C14 diacid = O=C(O)CCCCCCCCCCCCC(=O)*; αMeY = C[C@](N)(Cc1ccc(O)cc1)C(=O)O; 4Pal = N[C@@H](Cc1ccncc1)C(=O)O; αMeL = CC(C)C[C@](C)(N)C(=O)O; Orn = NCCC[C@H](N)C(=O)O; AEEA = NCCOCCOCC(=O)O; Aib = CC(C)(N)C(=O)O Where only a bound is given, the exact number is not on record here.

hGLP-1R, sequence (P43220 24-463): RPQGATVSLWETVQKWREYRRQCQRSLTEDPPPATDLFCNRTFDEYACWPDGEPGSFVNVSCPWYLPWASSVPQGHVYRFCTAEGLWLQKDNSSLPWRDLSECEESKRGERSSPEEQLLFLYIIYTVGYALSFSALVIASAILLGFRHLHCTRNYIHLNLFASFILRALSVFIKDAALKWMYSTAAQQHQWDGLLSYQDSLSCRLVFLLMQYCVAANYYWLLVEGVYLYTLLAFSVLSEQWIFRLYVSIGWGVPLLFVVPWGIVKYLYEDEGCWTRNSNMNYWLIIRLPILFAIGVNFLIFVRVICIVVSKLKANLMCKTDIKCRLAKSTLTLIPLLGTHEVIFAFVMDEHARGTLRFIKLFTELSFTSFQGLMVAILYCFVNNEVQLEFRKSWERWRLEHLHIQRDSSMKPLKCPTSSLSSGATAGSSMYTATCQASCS
T1 sequence (P47871 26-477): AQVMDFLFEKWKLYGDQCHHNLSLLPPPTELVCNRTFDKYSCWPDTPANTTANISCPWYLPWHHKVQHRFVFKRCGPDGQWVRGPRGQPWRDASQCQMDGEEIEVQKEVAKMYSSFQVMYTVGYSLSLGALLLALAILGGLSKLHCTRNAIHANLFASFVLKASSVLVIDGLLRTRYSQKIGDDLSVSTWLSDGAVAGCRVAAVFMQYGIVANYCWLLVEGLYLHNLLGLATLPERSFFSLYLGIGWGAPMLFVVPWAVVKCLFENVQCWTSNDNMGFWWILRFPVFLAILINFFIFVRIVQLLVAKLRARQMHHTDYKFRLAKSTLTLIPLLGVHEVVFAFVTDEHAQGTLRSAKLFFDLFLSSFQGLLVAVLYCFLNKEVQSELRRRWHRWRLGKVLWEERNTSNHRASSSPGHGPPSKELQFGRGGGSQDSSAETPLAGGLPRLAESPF

As for `CC[C@H](C)[C@H](NC(=O)[C@H](CCCN)NC(=O)[C@H](CC(=O)O)NC(=O)[C@H](CC(C)C)NC(=O)[C@](C)(CC(C)C)NC(=O)[C@@H](NC(=O)[C@H](CO)NC(=O)[C@H](Cc1ccncc1)NC(=O)[C@H](CC(=O)O)NC(=O)[C@H](CO)NC(=O)[C@@H](NC(=O)[C@](C)(Cc1ccccc1F)NC(=O)[C@@H](NC(=O)CNC(=O)[C@H](CCC(=O)O)NC(=O)C(C)(C)NC(=O)[C@@H](N)Cc1ccc(O)cc1)[C@@H](C)O)[C@@H](C)O)[C@@H](C)CC)C(=O)N[C@@H](C)C(=O)N[C@@H](CCC(N)=O)C(=O)NC(C)(C)C(=O)N[C@@H](CCC(=O)O)C(=O)N[C@@H](Cc1ccccc1)C(=O)N[C@H](C(=O)N[C@@H](CCCCNC(=O)COCCOCCNC(=O)COCCOCCNC(=O)CCCCCCCCCCCCC(=O)O)C(=O)N[C@@](C)(Cc1ccc(O)cc1)C(=O)N[C@@H](CC(C)C)C(=O)N[C@H](C(=O)N[C@@H](CCC(=O)O)C(=O)NCC(=O)NCC(=O)N[C@@H](CCCCNC(=O)COCCOCCNC(=O)COCCOCCNC(=O)CCCCCCCCCCCCC(=O)O)C(=O)N[C@@H](CO)C(=O)N[C@@H](CO)C(=O)NCC(=O)N[C@@H](C)C(=O)N1CCC[C@H]1C(=O)N1CCC[C@H]1C(=O)N1CCC[C@H]1C(=O)N[C@@H](CO)C(N)=O)[C@@H](C)CC)[C@@H](C)CC` [Example 193], the EC50 is over 9950 nM in assay [1] (setting [4]); over 9950 nM in assay [1] (setting [5]); 24.3 nM in assay [2] (setting [4]); 0.382 nM in assay [2] (setting [5]); 0.0201 nM in assay [3] (setting [5]). For the same compound, the Emax in assay [3] (setting [6]) is 92.2 ± 0.24%; in assay [3] (setting [7]) it was 97.2 ± 4.63%.
Take `CC[C@H](C)[C@H](NC(=O)[C@H](CC(C)C)NC(=O)[C@](C)(Cc1ccc(O)cc1)NC(=O)[C@@H](CCC(=O)O)NC(=O)[C@@H](NC(=O)[C@H](Cc1ccccc1)NC(=O)[C@H](CCC(=O)O)NC(=O)C(C)(C)NC(=O)[C@H](CCC(N)=O)NC(=O)[C@H](C)NC(=O)[C@H](CCCCNC(=O)[C@@H](N)CCCCNC(=O)CC[C@H](NC(=O)CCCCCCCCCCCCC(=O)O)C(=O)O)NC(=O)[C@H](CCCN)NC(=O)[C@H](CC(=O)O)NC(=O)[C@H](CC(C)C)NC(=O)[C@](C)(CC(C)C)NC(=O)[C@@H](NC(=O)C(C)(C)NC(=O)[C@@H](NC(=O)[C@H](CC(=O)O)NC(=O)[C@H](CO)NC(=O)[C@@H](NC(=O)[C@](C)(Cc1ccccc1F)NC(=O)[C@@H](NC(=O)CNC(=O)[C@H](CCC(=O)O)NC(=O)C(C)(C)NC(=O)[C@@H](N)Cc1ccc(O)cc1)[C@@H](C)O)[C@@H](C)O)C(C)C)[C@@H](C)CC)[C@@H](C)CC)C(=O)N[C@@H](CCC(=O)O)C(=O)NCC(=O)NCC(=O)N[C@@H](CCCCNC(=O)[C@@H](N)CCCCNC(=O)CC[C@H](NC(=O)CCCCCCCCCCCCC(=O)O)C(=O)O)C(=O)N[C@@H](CO)C(=O)N[C@@H](CO)C(=O)NCC(=O)N[C@@H](C)C(=O)N1CCC[C@H]1C(=O)N1CCC[C@H]1C(=O)N1CCC[C@H]1C(=O)N[C@@H](CO)C(N)=O` [Example 164]: the EC50 is over 9950 nM in assay [1] (setting [4]), over 9950 nM in assay [1] (setting [5]), 26.6 nM in assay [2] (setting [4]) and 0.0464 nM in assay [3] (setting [5]). Further, the maximal effect (Emax) in assay [2] (setting [8]) is 95.4%; in assay [2] (setting [9]), 93.8 ± 0.298%; in assay [3] (setting [6]), 93%; in assay [3] (setting [7]), 95.8 ± 5.48%.
Regarding `CC[C@H](C)[C@H](NC(=O)[C@H](CC(C)C)NC(=O)[C@](C)(Cc1ccc(O)cc1)NC(=O)[C@@H](CCC(=O)O)NC(=O)[C@@H](NC(=O)[C@H](Cc1ccccc1)NC(=O)[C@H](CCC(=O)O)NC(=O)C(C)(C)NC(=O)[C@H](CCC(N)=O)NC(=O)[C@H](C)NC(=O)[C@H](CCCCNC(=O)COCCOCCNC(=O)COCCOCCNC(=O)CC[C@H](NC(=O)CCCCCCCCCCCCC(=O)O)C(=O)O)NC(=O)[C@H](CCCN)NC(=O)[C@H](CC(=O)O)NC(=O)[C@H](CC(C)C)NC(=O)[C@](C)(CC(C)C)NC(=O)[C@@H](NC(=O)[C@H](CO)NC(=O)[C@](C)(CC(C)C)NC(=O)[C@H](CC(=O)O)NC(=O)[C@H](CO)NC(=O)[C@@H](NC(=O)[C@](C)(Cc1ccccc1F)NC(=O)[C@@H](NC(=O)CNC(=O)[C@H](CCC(=O)O)NC(=O)C(C)(C)NC(=O)[C@@H](N)Cc1ccc(O)cc1)[C@@H](C)O)[C@@H](C)O)[C@@H](C)CC)[C@@H](C)CC)C(=O)N[C@@H](CCC(=O)O)C(=O)NCC(=O)NCC(=O)N[C@@H](CCCCNC(=O)COCCOCCNC(=O)COCCOCCNC(=O)CC[C@H](NC(=O)CCCCCCCCCCCCC(=O)O)C(=O)O)C(=O)N[C@@H](CO)C(=O)N[C@@H](CO)C(=O)NCC(=O)N[C@@H](C)C(=O)N1CCC[C@H]1C(=O)N1CCC[C@H]1C(=O)N1CCC[C@H]1C(=O)N[C@@H](CO)C(N)=O` [Example 51], the EC50 is over 9950 nM in assay [1] (setting [4]), over 9950 nM in assay [1] (setting [5]) and 0.11 nM in assay [3] (setting [5]). For the same compound, the Emax stood at 92.9% in assay [2] (setting [8]), 85.7 ± 9.8% in assay [2] (setting [9]) and 90.7% in assay [3] (setting [6]).
Turning to `CC[C@H](C)[C@H](NC(=O)[C@H](CC(C)C)NC(=O)[C@](C)(Cc1ccc(O)cc1)NC(=O)[C@H](CCCCNC(=O)COCCOCCNC(=O)COCCOCCNC(=O)CC[C@H](NC(=O)CCCCCCCCCCCCC(=O)O)C(=O)O)NC(=O)[C@@H](NC(=O)[C@H](Cc1ccccc1)NC(=O)[C@H](CCC(=O)O)NC(=O)C(C)(C)NC(=O)[C@H](CCC(N)=O)NC(=O)[C@H](C)NC(=O)[C@H](CCCCNC(=O)COCCOCCNC(=O)COCCOCCNC(=O)CC[C@H](NC(=O)CCCCCCCCCCCCC(=O)O)C(=O)O)NC(=O)[C@H](CCCN)NC(=O)[C@H](CC(=O)O)NC(=O)[C@H](CC(C)C)NC(=O)[C@](C)(CC(C)C)NC(=O)[C@@H](NC(=O)[C@H](CO)NC(=O)[C@H](Cc1ccncc1)NC(=O)[C@H](CC(=O)O)NC(=O)[C@H](CO)NC(=O)[C@@H](NC(=O)[C@](C)(Cc1ccccc1F)NC(=O)[C@@H](NC(=O)CNC(=O)[C@H](CCC(=O)O)NC(=O)C(C)(C)NC(=O)[C@@H](N)Cc1ccc(O)cc1)[C@@H](C)O)[C@@H](C)O)[C@@H](C)CC)[C@@H](C)CC)C(=O)N[C@@H](CCC(=O)O)C(=O)NCC(=O)N[C@@H](CCCN)C(N)=O` [Example 190] (H-Y[Aib]EGT[αMePhe(2-F)]TSD[4Pal]SI[αMeL]LD[Orn]K([AEEA-AEEA-γGlu-C14 diacid])AQ[Aib]EFIK([AEEA-AEEA-γGlu-C14 diacid])[αMeY]LIEG[Orn]-NH2; N-terminus assumed), the EC50 in assay [1] (setting [4]) is over 9950 nM; in assay [1] (setting [5]) it was over 9950 nM; in assay [2] (setting [4]), 28.9 nM; in assay [2] (setting [5]), 0.303 nM; in assay [3] (setting [4]), 1.55 nM; in assay [3] (setting [5]), 0.024 nM. Moreover, the Emax in assay [2] (setting [8]) is 112 ± 8.5%; in assay [2] (setting [9]), 98.9 ± 4.64%; in assay [3] (setting [6]), 82.8 ± 3.36%; in assay [3] (setting [7]), 94.5 ± 0.611%.
